Test [1] deals with T1, BRG1 (Homo sapiens, UniProt P51532).
T1 construct: either BRM primary antibody (Cell signaling Cat #11966) or BRG primary antibody (Abcam, ab 110641); endogenous in cells; host or cells: SW1573
In words: Immunofluorescence assay for BRG1 degradation in SW1573 cells. It counts as cell-based. To be noted: 20 hours incubation; for DC50: immunofluorescence mean nuclear signal, read-out: BRG1 IF Degradation IC50; for Dmax: SW1573, 20 h, normalized to a known degrader control, read-out: BRG1 IF Degradation Sinf (%). An outline of the steps:
(§1)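 Imaging-based readout in SW1573: 20 h dosing, formaldehyde fixation, antibody staining for either remodeler, nuclear intensity per cell quantified. Values normalized to control degrader; floating-maximum fit.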

Test [2] addresses BRM (Homo sapiens, UniProt P51531). In words: Immunofluorescence assay for BRM degradation in SW1573 cells. It counts as cell-based. Further details: treated overnight at 4° C. with either BRM primary antibody (Cell signaling Cat #11966) or BRG primary antibody; endogenous in cells; host or cells: SW1573. To be noted: 20 hours incubation; for DC50: immunofluorescence mean nuclear signal, read-out: BRM IF Degradation IC50; for BRM IF Degradation Sinf (%): normalized to a known degrader control. An outline of the steps: as §1

These results are taken from US11993599B2, “Therapeutic compounds” (Genentech, Inc., priority 2021, dated 2024).

Sequence of BRM (P51531 whole entry): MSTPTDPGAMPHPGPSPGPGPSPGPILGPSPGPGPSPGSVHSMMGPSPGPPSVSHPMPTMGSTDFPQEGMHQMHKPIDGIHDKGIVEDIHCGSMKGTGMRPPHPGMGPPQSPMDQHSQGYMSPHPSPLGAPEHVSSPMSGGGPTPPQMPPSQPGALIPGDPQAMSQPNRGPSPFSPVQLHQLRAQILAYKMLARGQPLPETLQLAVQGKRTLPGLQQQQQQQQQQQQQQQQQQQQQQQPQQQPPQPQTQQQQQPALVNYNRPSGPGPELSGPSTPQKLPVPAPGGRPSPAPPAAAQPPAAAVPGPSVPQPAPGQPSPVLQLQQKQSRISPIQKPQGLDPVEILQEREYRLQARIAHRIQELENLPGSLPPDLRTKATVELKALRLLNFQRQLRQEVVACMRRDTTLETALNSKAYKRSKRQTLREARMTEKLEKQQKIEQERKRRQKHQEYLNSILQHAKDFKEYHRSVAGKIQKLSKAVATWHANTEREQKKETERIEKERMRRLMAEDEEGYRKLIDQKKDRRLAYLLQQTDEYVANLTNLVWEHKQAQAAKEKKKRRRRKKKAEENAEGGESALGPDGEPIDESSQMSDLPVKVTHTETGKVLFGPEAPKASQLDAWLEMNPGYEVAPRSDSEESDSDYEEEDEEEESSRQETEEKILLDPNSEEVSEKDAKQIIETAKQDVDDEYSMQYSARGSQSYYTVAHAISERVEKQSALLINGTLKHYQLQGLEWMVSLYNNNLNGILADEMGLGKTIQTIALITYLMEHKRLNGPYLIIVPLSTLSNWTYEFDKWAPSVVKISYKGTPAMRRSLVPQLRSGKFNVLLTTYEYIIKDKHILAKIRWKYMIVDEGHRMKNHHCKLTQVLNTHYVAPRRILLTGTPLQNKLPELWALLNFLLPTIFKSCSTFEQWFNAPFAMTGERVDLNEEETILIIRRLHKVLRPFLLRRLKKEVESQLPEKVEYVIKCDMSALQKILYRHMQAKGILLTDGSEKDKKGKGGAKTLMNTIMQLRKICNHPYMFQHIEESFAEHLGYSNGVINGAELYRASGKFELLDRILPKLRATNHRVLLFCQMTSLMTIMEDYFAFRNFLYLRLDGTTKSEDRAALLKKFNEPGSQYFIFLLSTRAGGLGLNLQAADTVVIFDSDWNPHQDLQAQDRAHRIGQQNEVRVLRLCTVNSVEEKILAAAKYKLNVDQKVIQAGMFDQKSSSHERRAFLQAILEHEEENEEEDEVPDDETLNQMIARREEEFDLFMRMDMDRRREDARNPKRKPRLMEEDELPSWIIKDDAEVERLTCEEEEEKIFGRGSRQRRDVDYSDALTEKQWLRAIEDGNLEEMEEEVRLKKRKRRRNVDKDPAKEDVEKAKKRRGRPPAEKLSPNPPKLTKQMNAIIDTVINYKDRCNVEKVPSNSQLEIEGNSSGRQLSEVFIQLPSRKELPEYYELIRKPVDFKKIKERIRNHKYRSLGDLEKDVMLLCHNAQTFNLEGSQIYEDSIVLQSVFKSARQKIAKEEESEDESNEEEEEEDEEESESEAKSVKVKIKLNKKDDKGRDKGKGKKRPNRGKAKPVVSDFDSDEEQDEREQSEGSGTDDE
T1 sequence (P51532 whole entry): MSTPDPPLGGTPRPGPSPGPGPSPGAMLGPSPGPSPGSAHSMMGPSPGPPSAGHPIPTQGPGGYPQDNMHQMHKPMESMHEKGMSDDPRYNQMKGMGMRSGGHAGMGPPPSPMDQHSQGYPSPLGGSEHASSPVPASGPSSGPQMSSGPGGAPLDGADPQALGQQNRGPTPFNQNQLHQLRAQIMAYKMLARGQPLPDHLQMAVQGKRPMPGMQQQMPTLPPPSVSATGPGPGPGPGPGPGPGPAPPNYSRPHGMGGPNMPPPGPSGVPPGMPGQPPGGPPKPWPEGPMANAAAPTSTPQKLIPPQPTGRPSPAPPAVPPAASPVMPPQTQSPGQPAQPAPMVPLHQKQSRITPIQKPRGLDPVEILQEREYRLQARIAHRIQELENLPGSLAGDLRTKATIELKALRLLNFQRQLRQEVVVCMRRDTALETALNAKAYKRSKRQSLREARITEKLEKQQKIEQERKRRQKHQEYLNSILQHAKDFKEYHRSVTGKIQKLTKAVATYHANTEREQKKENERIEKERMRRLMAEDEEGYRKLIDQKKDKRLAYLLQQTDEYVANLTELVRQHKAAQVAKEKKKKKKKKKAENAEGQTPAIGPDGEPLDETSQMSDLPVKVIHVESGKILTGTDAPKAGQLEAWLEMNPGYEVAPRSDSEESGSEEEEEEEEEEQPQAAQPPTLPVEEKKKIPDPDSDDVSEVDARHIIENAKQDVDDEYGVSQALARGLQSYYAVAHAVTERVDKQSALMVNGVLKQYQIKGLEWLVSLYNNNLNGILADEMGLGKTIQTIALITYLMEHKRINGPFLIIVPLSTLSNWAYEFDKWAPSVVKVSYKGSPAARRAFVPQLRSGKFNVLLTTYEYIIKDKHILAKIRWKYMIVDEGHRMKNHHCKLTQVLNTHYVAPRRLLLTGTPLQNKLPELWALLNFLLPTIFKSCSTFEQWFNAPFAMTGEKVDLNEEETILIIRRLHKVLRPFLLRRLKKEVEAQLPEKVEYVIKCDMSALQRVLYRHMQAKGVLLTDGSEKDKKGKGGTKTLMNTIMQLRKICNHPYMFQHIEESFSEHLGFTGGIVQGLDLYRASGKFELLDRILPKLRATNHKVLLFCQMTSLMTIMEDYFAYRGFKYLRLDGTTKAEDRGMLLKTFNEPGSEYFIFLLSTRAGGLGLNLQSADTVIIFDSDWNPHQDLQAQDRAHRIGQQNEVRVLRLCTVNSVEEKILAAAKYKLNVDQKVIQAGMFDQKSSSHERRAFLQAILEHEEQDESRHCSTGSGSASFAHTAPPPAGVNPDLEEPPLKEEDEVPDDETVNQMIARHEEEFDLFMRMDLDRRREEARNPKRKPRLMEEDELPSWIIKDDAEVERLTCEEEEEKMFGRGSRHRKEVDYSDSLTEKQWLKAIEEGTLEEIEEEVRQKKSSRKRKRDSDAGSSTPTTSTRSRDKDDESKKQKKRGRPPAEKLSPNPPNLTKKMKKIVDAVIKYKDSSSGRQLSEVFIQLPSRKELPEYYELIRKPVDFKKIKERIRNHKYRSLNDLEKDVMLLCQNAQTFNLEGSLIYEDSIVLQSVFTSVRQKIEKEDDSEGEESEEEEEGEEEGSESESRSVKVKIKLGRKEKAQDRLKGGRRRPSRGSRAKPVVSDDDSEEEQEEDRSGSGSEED

`Nc1nnc(-c2ccccc2O)cc1N1CC2CCC(C1)N2c1ccnc(C#CCN2CC3CC2CO3)c1` (stereo not drawn) [Compound 132, 2-[6-amino-5-[8-[2-[3-(2-oxa-5-azabicyclo[2.2.1]heptan-5-yl)prop-1-ynyl]-4-pyridyl]-3,8-diazabicyclo[3.2.1]octan-3-yl]pyridazin-3-yl]phenol]: in test [1], the DC50 is below 10 nM and the Dmax was 30 to 70%. Moreover, in test [2], the DC50 was below 10 nM and the “BRM IF Degradation Sinf (%)” value is listed as “E (E indicates −30%-−70%)”.
`Nc1nnc(-c2ccccc2O)cc1N1CC2CCC(C1)N2c1ccnc(C#CCN2CCC(F)C2)c1` (stereo not drawn) [Compound 133, 2-[6-amino-5-[8-[2-[3-(3-fluoropyrrolidin-1-yl)prop-1-ynyl]-4-pyridyl]-3,8-diazabicyclo[3.2.1]octan-3-yl]pyridazin-3-yl]phenol]: in test [1], the DC50 was below 10 nM and the Dmax was in the range of 0 to 30%. For the same molecule, in test [2], the DC50 was below 10 nM and the “BRM IF Degradation Sinf (%)” value is recorded as “E (E indicates −30%-−70%)”.
For the molecule `Nc1nnc(-c2ccccc2O)cc1N1CC2CCC(C1)N2c1ccnc(C#CCN2CCCC(CO)C2)c1` (stereo not drawn) [Compound 134, 2-[6-amino-5-[8-[2-[3-[3-(hydroxymethyl)-1-piperidyl]prop-1-ynyl]-4-pyridyl]-3,8-diazabicyclo[3.2.1]octan-3-yl]pyridazin-3-yl]phenol], in test [1], the DC50 was in the range of 10 to 100 nM and the Dmax is 30 to 70%. Further, in test [2], the DC50 is 10 to 100 nM and the “BRM IF Degradation Sinf (%)” value is given as “E (E indicates −30%-−70%)”.
`CC1(C)CN(CC#Cc2cc(N3C4CCC3CN(c3cc(-c5ccccc5O)nnc3N)C4)ccn2)C1` [Compound 135, 2-[6-amino-5-[8-[2-[3-(3,3-dimethylazetidin-1-yl)prop-1-ynyl]-4-pyridyl]-3,8-diazabicyclo[3.2.1]octan-3-yl]pyridazin-3-yl]phenol]: in test [1], the DC50 is below 10 nM and the Dmax lay within 30 to 70%. Moreover, in test [2], the DC50 is below 10 nM and the “BRM IF Degradation Sinf (%)” value was “E (E indicates −30%-−70%)”.
In the case of `Nc1nnc(-c2ccccc2O)cc1N1CC2CCC(C1)N2c1ccnc(C#CCN2CCC3(CC2)CC3)c1` [Compound 136, 2-(5-(8-(2-(3-(6-azaspiro[2.5]octan-6-yl)prop-1-yn-1-yl)pyridin-4-yl)-3,8-diazabicyclo[3.2.1]octan-3-yl)-6-aminopyridazin-3-yl)phenol], in test [1], the DC50 was below 10 nM and the Dmax was in the range of 30 to 70%. Besides, in test [2], the DC50 was below 10 nM and the “BRM IF Degradation Sinf (%)” value is “E (E indicates −30%-−70%)”.
`Nc1nnc(-c2ccccc2O)cc1N1CC2CCC(C1)N2c1ccnc(C#CCN2CC3CC3(CO)C2)c1` (stereo not drawn) [Compound 137, 2-[6-amino-5-[8-[2-[3-[1-(hydroxymethyl)-3-azabicyclo[3.1.0]hexan-3-yl]prop-1-ynyl]-4-pyridyl]-3,8-diazabicyclo[3.2.1]octan-3-yl]pyridazin-3-yl]phenol]: in test [1], the DC50 is below 10 nM and the Dmax was in the range of 30 to 70%. In test [2], the DC50 was below 10 nM and the “BRM IF Degradation Sinf (%)” value is recorded as “E (E indicates −30%-−70%)”.
For `CC1CCN(CC#Cc2cc(N3C4CCC3CN(c3cc(-c5ccccc5O)nnc3N)C4)ccn2)CC1` [Compound 138, 2-[6-amino-5-[8-[2-[3-(4-methyl-1-piperidyl)prop-1-ynyl]-4-pyridyl]-3,8-diazabicyclo[3.2.1]octan-3-yl]pyridazin-3-yl]phenol], in test [1], the DC50 is below 10 nM and the Dmax lay within 30 to 70%. Moreover, in test [2], the DC50 fell in the range of 10 to 100 nM and the “BRM IF Degradation Sinf (%)” value is “E (E indicates −30%-−70%)”.
The corresponding values for `N#CC1CCN(CC#Cc2cc(N3C4CCC3CN(c3cc(-c5ccccc5O)nnc3N)C4)ccn2)CC1` [Compound 139, 1-[3-[4-[3-[3-amino-6-(2-hydroxyphenyl)pyridazin-4-yl]-3,8-diazabicyclo[3.2.1]octan-8-yl]-2-pyridyl]prop-2-ynyl]piperidine-4-carbonitrile] are 10 to 100 nM, 0 to 30%, below 10 nM and “E (E indicates −30%-−70%)”.
Take `Nc1nnc(-c2ccccc2O)cc1N1CC2CCC(C1)N2c1ccnc(C#CCN2CCC3(CCOC3)C2)c1` (stereo not drawn) [Compound 140, 2-[6-amino-5-[8-[2-[3-(2-oxa-7-azaspiro[4.4]nonan-7-yl)prop-1-ynyl]-4-pyridyl]-3,8-diazabicyclo[3.2.1]octan-3-yl]pyridazin-3-yl]phenol]: in test [1], the DC50 is below 10 nM and the Dmax lay in the range of 30 to 70%. In addition, in test [2], the DC50 was below 10 nM and the “BRM IF Degradation Sinf (%)” value is recorded as “F (F indicates −71%-−120%)”.
As to `Nc1nnc(-c2ccccc2O)cc1N1CC2CCC(C1)N2c1ccnc(C#CCN2CC3CCC2C3)c1` (stereo not drawn) [Compound 141, 2-[6-amino-5-[8-[2-[3-(2-azabicyclo[2.2.1]heptan-2-yl)prop-1-ynyl]-4-pyridyl]-3,8-diazabicyclo[3.2.1]octan-3-yl]pyridazin-3-yl]phenol], in test [1], the DC50 was below 10 nM and the Dmax lay within 30 to 70%. Besides, in test [2], the DC50 is below 10 nM and the “BRM IF Degradation Sinf (%)” value is “E (E indicates −30%-−70%)”.
In the case of `Nc1nnc(-c2ccccc2O)cc1N1CC2CCC(C1)N2c1ccnc(C#CCN2CC(O)C2)c1` [Compound 142, 1-[3-[4-[3-[3-amino-6-(2-hydroxyphenyl)pyridazin-4-yl]-3,8-diazabicyclo[3.2.1]octan-8-yl]-2-pyridyl]prop-2-ynyl]azetidin-3-ol], in test [1], the DC50 was in the range of 10 to 100 nM and the Dmax was in the range of 30 to 70%. Further, in test [2], the DC50 is 10 to 100 nM and the “BRM IF Degradation Sinf (%)” value was “E (E indicates −30%-−70%)”.
Regarding `Nc1nnc(-c2ccccc2O)cc1N1CC2CCC(C1)N2c1ccnc(C#CCN2CC3CC2CC3(F)F)c1` (stereo not drawn) [Compound 143, 2-[6-amino-5-[8-[2-[3-(5,5-difluoro-2-azabicyclo[2.2.1]heptan-2-yl)prop-1-ynyl]-4-pyridyl]-3,8-diazabicyclo[3.2.1]octan-3-yl]pyridazin-3-yl]phenol], in test [1], the DC50 is below 10 nM and the Dmax was in the range of 0 to 30%. Also, in test [2], the DC50 is below 10 nM and the “BRM IF Degradation Sinf (%)” value is recorded as “E (E indicates −30%-−70%)”.
Take `Nc1nnc(-c2ccccc2O)cc1N1CC2CCC(C1)N2c1ccnc(C#CCN2C3COCC2CC(F)C3)c1` (stereo not drawn) [Compound 144, 2-[6-amino-5-[8-[2-[3-(7-fluoro-3-oxa-9-azabicyclo[3.3.1]nonan-9-yl)prop-1-ynyl]-4-pyridyl]-3,8-diazabicyclo[3.2.1]octan-3-yl]pyridazin-3-yl]phenol]: in test [1], the DC50 lay within 10 to 100 nM and the Dmax fell in the range of 0 to 30%. Further, in test [2], the DC50 is above 100 nM and the “BRM IF Degradation Sinf (%)” value is “E (E indicates −30%-−70%)”.
For `Nc1nnc(-c2ccccc2O)cc1N1CC2CCC(C1)N2c1ccnc(C#CCN2CCC3OCCC3C2)c1` (stereo not drawn) [Compound 145, 2-[5-[8-[2-[3-(3,3a,4,6,7,7a-hexahydro-2H-furo[3,2-c]pyridin-5-yl)prop-1-ynyl]-4-pyridyl]-3,8-diazabicyclo[3.2.1]octan-3-yl]-6-amino-pyridazin-3-yl]phenol], in test [1], the DC50 is below 10 nM and the Dmax lay within 0 to 30%. Besides, in test [2], the DC50 is below 10 nM and the “BRM IF Degradation Sinf (%)” value was “E (E indicates −30%-−70%)”.
`Nc1nnc(-c2ccccc2O)cc1N1CC2CCC(C1)N2c1ccnc(C#CCN2CCC3CNCC32)c1` (stereo not drawn) [Compound 146, 2-[5-[8-[2-[3-(3,3a,4,5,6,6a-hexahydro-2H-pyrrolo[3,4-b]pyrrol-1-yl)prop-1-ynyl]-4-pyridyl]-3,8-diazabicyclo[3.2.1]octan-3-yl]-6-amino-pyridazin-3-yl]phenol]: in test [1], the DC50 was above 100 nM and the Dmax fell in the range of 30 to 70%. For the same molecule, in test [2], the DC50 was above 100 nM and the “BRM IF Degradation Sinf (%)” value was “E (E indicates −30%-−70%)”.
Turning to `Nc1nnc(-c2ccccc2O)cc1N1CC2CCC(C1)N2c1ccnc(C#CCN2CCOC3CCNCC32)c1` (stereo not drawn) [Compound 147, 2-[5-[8-[2-[3-(2,3,4a,5,6,7,8,8a-octahydropyrido[4,3-b][l,4]oxazin-4-yl)prop-1-ynyl]-4-pyridyl]-3,8-diazabicyclo[3.2.1]octan-3-yl]-6-amino-pyridazin-3-yl]phenol], in test [1], the DC50 was above 100 nM and the Dmax lay in the range of 30 to 70%. Also, in test [2], the DC50 was above 100 nM and the “BRM IF Degradation Sinf (%)” value is reported as “E (E indicates −30%-−70%)”.
Regarding `CNC(=O)C12CC(CN1CC#Cc1cc(N3C4CCC3CN(c3cc(-c5ccccc5O)nnc3N)C4)ccn1)C2` [Compound 148, 2-[3-[4-[3-[3-amino-6-(2-hydroxyphenyl)pyridazin-4-yl]-3,8-diazabicyclo[3.2.1]octan-8-yl]-2-pyridyl]prop-2-ynyl]-N-methyl-2-azabicyclo[2.1.1]hexane-1-carboxamide], in test [1], the DC50 was above 100 nM and the Dmax lay within 30 to 70%. For the same molecule, in test [2], the DC50 fell in the range of 10 to 100 nM and the “BRM IF Degradation Sinf (%)” value is “E (E indicates −30%-−70%)”.
On the same counts, the results for `Nc1nnc(-c2ccccc2O)cc1N1CC2CCC(C1)N2c1ccnc(C#CCN2Cc3cn[nH]c3C2)c1` [Compound 149, 2-[6-amino-5-[8-[2-[3-(4,6-dihydro-1H-pyrrolo[3,4-c]pyrazol-5-yl)prop-1-ynyl]-4-pyridyl]-3,8-diazabicyclo[3.2.1]octan-3-yl]pyridazin-3-yl]phenol] are 10 to 100 nM, 0 to 30%, 10 to 100 nM and “E (E indicates −30%-−70%)”.
